The source of these data is patent US20250206751A1, “HETEROCYCLIC COMPOUND FOR INDUCING DEGRADATION OF G12D MUTANT KRAS PROTEIN” (Astellas Pharma Inc., priority 2022, published 2025).

In one experiment the target is T1, KRAS G12D protein (Homo sapiens, UniProt P01116, G12D).
T1 construct: host or cells: AsPC-1
The experiment is described as follows: KRAS degradation activity by Cell ELISA in AsPC-1 (Test Example 1). As to conditions: AsPC-1 cells, cultured overnight with compound, corrected with β-actin, read-out: DC50 (50% degradation concentration of the amounts of KRAS). It counts as cell-based. How it is done:
Test Example 1: Evaluation of KRAS Degradation Activity on Human G12D Mutant KRAS-Positive Pancreatic Cancer Line AsPC-1 (CRL-1682; ATCC)
The KRAS degradation activity of test compounds was evaluated by measuring the expression levels of KRAS G12D protein by Cell ELISA.
AsPC-1 cells were seeded at 20 μL per well on 384-well plates (from Greiner bio-one) to give 2.0×10^4 cells per well. As for the cell culture conditions, RPMI 1640 (from Sigma-Aldrich) medium containing 10% fetal bovine serum (from Cytiva) was used in the presence of 5% CO2 at 37° C.
The next day, the test compounds (10 points having final concentrations in the range of 10 μM to 0.3 nM) and DMSO (from FUJIFILM Wako Pure Chemical Corporation), which was the solvent for the test compounds, as a negative control were diluted 500-fold with a fresh medium and were added at 20 μL per well. The cells were cultured overnight.
The next day, the culture supernatant was removed, and 4% paraformaldehyde phosphate buffer (from FUJIFILM Wako Pure Chemical Corporation) was added at 20 μL per well. The plates were allowed to stand for 30 minutes at room temperature to thus immobilize the cells. Then, the supernatant was removed, and 0.1% Triton X-100 (from Amersham Biosciences)-containing Phosphate buffered saline (PBS; from FUJIFILM Wako Pure Chemical Corporation) was added at 20 μL per well. After allowing to stand for 10 minutes at room temperature, the supernatant was removed. PBS was added at 25 μL per well, and the supernatant was removed to thus wash each well. The washing was performed twice in total. Next, the supernatant was removed, and 0.5% sodium dodecyl sulfate (SDS; from Invitrogen)-containing PBS was added at 20 μL per well. After allowing to stand at room temperature for 10 minutes, the supernatant was removed by a centrifugal operation (using a centrifugal dehydrator machine, the supernatant was removed by the same method hereinafter). PBS was added at 25 μL per well, and the supernatant was removed to thus wash each well. The washing was performed twice in total. The supernatant was removed, and blocking solution (Intercept Blocking Buffer; from Li-COR Biosciences) was added at 20 μL per well. After allowing to stand for 30 minutes at room temperature, the supernatant was removed, and a solution obtained by diluting anti-β-actin antibody (Anti-beta Actin antibody [mAbcam 8226]-Loading Control; from abcam) 1,000-fold with blocking solution and a solution obtained by diluting anti-Ras (G12D Mutant Specific) antibody (Ras (G12D Mutant Specific) (D8H7) Rabbit mAb #14429; from Cell Signaling Technology) and anti-β-actin antibody (from abcam) 1,000-fold with blocking solution were respectively added to positive control wells and the other wells at 20 μL per well as a primary antibody. The plate was allowed to stand overnight at 4° C.
The next day, the supernatant was removed. PBS was added at 25 μL per well, and the supernatant was removed to thus wash each well. The washing was performed twice in total. The supernatant was removed, and a solution obtained by diluting Donkey anti-Mouse IgG H&L (IRDye 680RD) (from Li-COR Biosciences) and Goat anti-Rabbit IgG H&L (IRDye 800CW) (from Li-COR Biosciences) 1,000-fold with blocking solution was added at 20 μL per well as a secondary antibody. After allowing to stand for 1 hour at room temperature, the supernatant was removed. PBS was added at 25 μL per well, and the supernatant was removed to thus wash each well. The washing was performed twice in total. After removing the supernatant, the plate was dried with air at room temperature for 2 hours or more, and the 700 nm and 800 nm fluorescent signals were measured with Aerius (from Li-COR Biosciences). […]

Experiment [1] deals with phosphorylation of threonine 202 (Thr202) and tyrosine 204 (Tyr204) of ERK. Put plainly: ERK phosphorylation inhibitory effect by Cell ELISA in AsPC-1 (Test Example 2). The format is cell-based, human. As to conditions: Homo sapiens, ASPC1, AsPC-1 cells, cultured overnight with compound; 1 μM trametinib taken as 0%. How it is done:
Test Example 2: Evaluation of ERK Phosphorylation Inhibitory Effect on Human G12D Mutant KRAS-Positive Pancreatic Cancer Line AsPC-1
The ERK phosphorylation inhibitory effect of test compounds was evaluated by measuring phosphorylation of threonine 202 (Thr202) and tyrosine 204 (Tyr204) of ERK located downstream of the KRAS signal by Cell ELISA.
AsPC-1 cells were seeded on 384-well plates at 36 μL/well to give 2.0×10^4 cells per well. As for the cell culture conditions, RPMI 1640 medium containing 10% fetal bovine serum was used in the presence of 5% CO2 at 37° C.
The next day, the test compounds (10 points having final concentrations in the range of 10 μM to 0.3 nM), trametinib (MEK inhibitor) of a final concentration of 1 μM as positive control and DMSO, which was the solvent for the test compounds, as negative control were diluted 100-fold with a fresh medium and were added at 4 μL per well. The cells were cultured overnight. After culturing, 30% glyoxal solution (40% glyoxal [from Nacalai Tesque] was diluted with PBS) was quickly added at 30 μL per well, and the plate was allowed to stand for 60 minutes at room temperature to thus immobilize the cells. Then, the plate was centrifuged to remove the supernatant (using a centrifugal dehydrator machine, the supernatant was removed by the same method hereinafter), and 0.1% Triton X-100-containing PBS was added at 20 μL per well. After allowing to stand for 10 minutes at room temperature, the supernatant was removed, and the same operation was further repeated. Next, 0.5% SDS-containing PBS was added at 20 μL per well, and after allowing to stand at room temperature for 30 minutes, the supernatant was removed. Subsequently, blocking solution (Intercept Blocking Buffer) was added at 20 μL per well, and the plate was allowed to stand for 1 hour at room temperature. The supernatant was removed, and an ERK (Thr202/Tyr204) phosphorylation antibody (Phospho-p44/42 MAPK (Erk 1/2) (Thr202/Tyr204) (D13.14.4E) XP Rabbit mAb; from Cell Signaling Technology) diluted 2,500-fold with blocking solution was added at 15 μL per well as a primary antibody. The plates were allowed to stand at 4° C. overnight.
The next day, the supernatant was removed. 0.05% Tween-20 (from Thermo Fisher Scientific)-containing PBS was added at 50 μL per well, and the supernatant was removed to thus wash each well. The washing was performed three times in total. After washing, Goat anti-Rabbit IgG H&L (IRDye 800CW) diluted 1,000-fold with blocking solution was added at 15 μL per well as a secondary antibody, and the plates were allowed to stand for 1 hour at room temperature. The supernatant was removed, and each well was washed three times with 0.05% Tween-20-containing PBS in the same manner as after the primary antibody reaction. After removing the supernatant, the plates were dried with air at room temperature for 3 hours or more, and the 800-nm fluorescent signals were measured with Aerius.
With the signaling value at the time of addition of DMSO taken as 100% and with the signaling value at the time of addition of 1 μM trametinib taken as 0%, the 50% inhibitory concentration values (IC50) were calculated by Sigmoid-Emax nonlinear regression analysis.

The subject of experiment [2] is human G12D mutant KRAS-positive pancreatic cancer line AsPC-1. Put plainly: Non-anchorage-dependent cell growth inhibition, spheroid 3D cell culture (Test Example 3). It counts as cell-based. Conditions: Homo sapiens, ASPC1, 144 h, AsPC-1 spheroid 3D culture, 6 days, CellTiter Glo 2.0. How it is done: Test Example 3: Evaluation of Non-Anchorage-Dependent Cell Growth Inhibitory Effect on Human G12D Mutant KRAS-Positive Pancreatic Cancer Line AsPC-1
The non-anchorage-dependent cell growth inhibitory effect of test compounds was evaluated by spheroid 3D cell culture.
AsPC-1 cells were seeded on low-cell-adhesive round bottom 384-well plates (PrimeSurface: from Sumitomo Bakelite) at 36 μL/well to give 5×10^2 cells per well. As for the cell culture conditions, RPMI 1640 medium containing 10% fetal bovine serum was used in the presence of 5% CO2 at 37° C.
The next day, the test compounds (10 or 6 points having final concentrations in the range of 10 μM to 0.3 nM) and DMSO, which was the solvent for the test compounds, as a negative control were diluted 100-fold with a fresh medium and were added at 4 μL per well. After culturing in the presence of 5% CO2 at 37° C. for 6 days, CellTiter Glo 2.0 (from Promega) was added at 20 μL per well. After stirring with a plate mixer (from FINEPCR) at room temperature for 1 hour, the luminescent signals were measured with ARVO X3 (from PerkinElmer).
With the signaling value in treatment with DMSO taken as 100% and with the signaling value in the medium alone without cells taken as 0%, the 50% inhibitory concentration values (IC50) were calculated by Sigmoid-Emax nonlinear regression analysis.

T1 sequence (P01116 1-188 isoform P01116-2 G12D): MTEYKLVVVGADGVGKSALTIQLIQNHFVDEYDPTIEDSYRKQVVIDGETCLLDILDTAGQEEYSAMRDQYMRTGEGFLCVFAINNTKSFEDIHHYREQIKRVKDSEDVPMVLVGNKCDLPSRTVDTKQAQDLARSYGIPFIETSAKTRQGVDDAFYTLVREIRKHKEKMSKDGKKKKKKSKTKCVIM

`CCn1nccc1-c1ccc([C@H](CO)NC(=O)[C@@H]2C[C@@H](O)CN2C(=O)[C@H](C(C)C)n2cc(-c3ccc(COc4c(-c5c(C)c(F)cc6[nH]ncc56)c(C5CC5)cc5c(N(C)[C@H]6CCNC6)nc(OC[C@H]6CCCO6)nc45)cc3)nn2)cc1` (atropisomer, axis not shown) [Example 29]: on KRAS G12D protein, the DC50 worked out at 20 nM. Further, the figures for the IC50 in experiment [1] and in experiment [2] were 6 nM and 7 nM, respectively.

For `Cc1ncsc1-c1ccc([C@H](CO)NC(=O)[C@@H]2C[C@@H](O)CN2C(=O)[C@H](C(C)C)n2cc(-c3ccc(COc4c(-c5c(C)c(F)cc6[nH]ncc56)c(C5CC5)cc5c(N(C)[C@H]6CCNC6)nc(OC[C@@H](C)C(F)F)nc45)cc3)nn2)cc1` [Example 42], the DC50 on KRAS G12D protein turned out to be 91 nM. Moreover, the IC50 was found to be 6 nM in experiment [1] and 4 nM in experiment [2].

As for `Cc1ncsc1-c1ccc([C@H](CO)NC(=O)[C@@H]2C[C@@H](O)CN2C(=O)[C@H](C(C)C)n2cc(-c3ccc(COc4c(-c5c(C)c(F)cc6[nH]ncc56)c(C5CC5)cc5c(N(C)[C@H]6CCNC6)nc(OC[C@H]6CCN(C)C6)nc45)cc3)nn2)cc1` (atropisomer, axis not shown) [Example 18], the DC50 on KRAS G12D protein is 508 nM. Further, the IC50 was determined as 100 nM in experiment [1] and 73 nM in experiment [2].

As for `Cc1ncsc1-c1ccc([C@H](CO)NC(=O)[C@@H]2C[C@@H](O)CN2C(=O)[C@H](C(C)C)n2cc(-c3ccc(COc4c(-c5c(C)c(F)cc6[nH]ncc56)c(C5CC5)cc5c(N(C)[C@H]6CCNC6)nc(OC[C@H](C)F)nc45)cc3)nn2)cc1` (atropisomer, axis not shown) [Example 35], at KRAS G12D protein, the DC50 amounted to 63 nM. For the same molecule, the IC50 was determined as 12 nM in experiment [1] and 9 nM in experiment [2].

For the molecule `Cc1c(F)cc2[nH]ncc2c1-c1c(C2CC2)cc2c(N(C)[C@H]3CCNC3)nc(OC[C@H]3CCCO3)nc2c1OCc1ccc(-c2cn([C@H](C(=O)N3C[C@H](O)C[C@H]3C(=O)N[C@@H](CO)c3ccc(-n4cncn4)cc3)C(C)C)nn2)cc1` (atropisomer, axis not shown) [Example 41], the DC50 on KRAS G12D protein was 29 nM. The IC50 in experiment [1] came out at 9 nM; in experiment [2] it was 8 nM.

With `Cc1ncsc1-c1ccc([C@H](CO)NC(=O)[C@@H]2C[C@@H](O)CN2C(=O)[C@H](C(C)C)n2cc(-c3ccc(COc4c(-c5c(C)c(F)cc6[nH]ncc56)c(C5CC5)cc5c(N(C)[C@H]6CCNC6)nc(OC[C@@H]6CCCO6)nc45)cc3)nn2)cc1` (atropisomer, axis not shown; (M)) [Example 10, (4R)-1-[(2S)-2-{4-[4-({[(7M) 6-cyclopropyl-7-(6-fluoro-5-methyl-1H-indazol-4-yl)-4-{methyl[(3S)-pyrrolidin-3-yl]amino}-2-{[(2S)-oxolan-2-yl]methoxy}quinazolin-8-yl}oxy}methyl)phenyl]-1H-1,2,3-triazol-1-yl}-3-methylbutanoyl]-4-hydroxy-N-{(1R)-2-hydroxy-1-[4-(4-methyl-1,3-thiazol-5-yl)phenyl]ethyl}-L-prolinamide], on KRAS G12D protein, the DC50 was determined as 18 nM. Also, the IC50 in experiment [1] was determined as 8 nM; in experiment [2], 6 nM.

In the case of `CO[C@H](C)COc1nc(N(C)[C@H]2CCNC2)c2cc(C3CC3)c(-c3c(C)c(F)cc4[nH]ncc34)c(OCc3ccc(-c4cn([C@H](C(=O)N5C[C@H](O)C[C@H]5C(=O)N[C@@H](CO)c5ccc(-c6scnc6C)cc5)C(C)C)nn4)cc3)c2n1` (atropisomer, axis not shown) [Example 16], the DC50 on KRAS G12D protein turned out to be 26 nM. Moreover, the values for the IC50 in experiment [1] and in experiment [2] were 16 nM and 14 nM, respectively.

In experiment [2], `Cc1ncsc1-c1ccc([C@H](CO)NC(=O)[C@@H]2C[C@@H](O)CN2C(=O)[C@H](C(C)C)n2cc(-c3ccc(COc4c(-c5c(C)c(F)cc6[nH]ncc56)c(C5CC5)nc5c(N6C[C@@H]7C[C@H]6CN7)nc(OC6CCOCC6)nc45)cc3)nn2)cc1` [Example 57, (4R)-1-[(2S)-2-(4-{4-[({6-cyclopropyl-4-[(1S,4S)-2,5-diazabicyclo[2.2.1]heptan-2-yl]-7-(6-fluoro-5-methyl-1H-indazol-4-yl)-2-[(oxan-4-yl)oxy]pyrido[3,2-d]pyrimidin-8-yl}oxy)methyl]phenyl}-1H-1,2,3-triazol-1-yl)-3-methylbutanoyl]-4-hydroxy-N-{(1R)-2-hydroxy-1-[4-(4-methyl-1,3-thiazol-5-yl)phenyl]ethyl}-L-prolinamide] returned an IC50 of 95 nM.
